What was measured:
[1] = tested on: Botryotinia fuckeliana (Botrytis cinerea); assay: Botryotinia fuckeliana (Botrytis cinerea) / liquid culture (gray mould); format: cell-based; conditions: growth inhibition determined photometrically 3-4 days after application, vs untreated control, read-out: disease control
[2] = tested on: Gaeumannomyces graminis; assay: Gaeumannomyces graminis / liquid culture (take-all of cereals); format: cell-based; conditions: growth inhibition determined photometrically 4-5 days after application, vs untreated control, read-out: disease control
[3] = tested on: Glomerella lagenarium (Colletotrichum lagenarium); assay: Glomerella lagenarium (Colletotrichum lagenarium) / liquid culture (anthracnose); format: cell-based; conditions: Colletotrichum orbiculare, growth inhibition measured photometrically 3-4 days after application, vs untreated control, read-out: disease control
[4] = tested on: Fusarium culmorum; assay: microbe, parasite or virus in culture; format: cell-based; conditions: 72 h, read-out: disease control
[5] = tested on: Monographella nivalis (Microdochium nivale); assay: Monographella nivalis (Microdochium nivale) / liquid culture (foot rot cereals); format: cell-based; conditions: 96 h, growth inhibition determined photometrically 4-5 days after application, vs untreated control, read-out: disease control
[6] = tested on: Magnaporthe grisea (Pyricularia oryzae); assay: microbe, parasite or virus in culture; format: cell-based; conditions: 72 h, read-out: control of Magnaporthe grisea
[7] = tested on: Sclerotinia sclerotiorum; assay: Sclerotinia sclerotiorum / liquid culture (cottony rot); conditions: 72 h, read-out: control of Sclerotinia sclerotiorum
Procedure: Sclerotinia sclerotiorum/Liquid Culture (Cottony Rot)
Mycelia fragments of a newly grown liquid culture of the fungus are directly mixed into nutrient broth (Vogels broth). After placing a (DMSO) solution of test compound into a microtiter plate (96-well format) the nutrient broth containing the fungal material is added. The test plates are incubated at 24° C. and the inhibition of growth is determined photometrically 3-4 days after application.

[8] = tested on: Pyrenophora teres; assay: Pyrenophora teres / liquid culture (net blotch); format: cell-based; conditions: growth inhibition determined photometrically 3-4 days after application, vs untreated control

Structure (SMILES)	inhibition of growth at 200 ppm [1]	inhibition of growth at 200 ppm [2]	inhibition of growth at 200 ppm [3]	inhibition of growth at 200 ppm [4]	inhibition of growth at 200 ppm [5]	inhibition of growth at 20 ppm [6]	melting point	inhibition of growth at 20 ppm [7]	inhibition of growth at 20 ppm [8]
CC1(C)N=C(n2cnc3ccccc32)c2ccccc2C12CC2 [E-3, 1′-(benzimidazol-1-yl)-3′,3′-dimethyl-spiro(cyclopropane-1,4′-isoquinoline)]	≥ 80%	≥ 80%	≥ 80%						
Cc1cccc2c1ncn2C1=NC(C)(C)C(C)(C)c2c1ccc(Cl)c2F [E-45]	≥ 80%		≥ 80%	≥ 80%	≥ 80%	≥ 80%	147 to 151 °C	≥ 80%	
CC1(C)N=C(n2cnc3c(Cl)cccc32)c2ccccc2C1=O [E-29]	≥ 80%								
CC(C)c1cccc2c1ncn2C1=NC(C)(C)C(C)(C)c2c(F)cccc21 [E-12]	≥ 80%		≥ 80%		≥ 80%	≥ 80%	113 to 114 °C		≥ 80%
Cc1cccc2c1ncn2C1=NC2(CC2)C2(CC2)c2ccccc21 [E-61]	≥ 80%	≥ 80%	≥ 80%	≥ 80%	≥ 80%	≥ 80%		≥ 80%	
Cc1cccc2c1ncn2C1=NC(C)(C)C(F)(F)c2c(F)cccc21 [E-20]	≥ 80%		≥ 80%	≥ 80%	≥ 80%	≥ 80%		≥ 80%	≥ 80%
C=C(C)c1cccc2c1ncn2C1=NC(C)(C)C(C)(C)c2c(F)cccc21 [E-11]	≥ 80%		≥ 80%		≥ 80%	≥ 80%			≥ 80%
CC1(C)N=C(n2cnc3c(C4CC4)cccc32)c2cccc(F)c2C1(C)C [E-8]	≥ 80%	≥ 80%	≥ 80%		≥ 80%	≥ 80%			
Cc1c(Br)ccc2c1ncn2C1=NC(C)(C)C(C)(C)c2c(F)cccc21 [E-41]	≥ 80%	≥ 80%	≥ 80%	≥ 80%	≥ 80%	≥ 80%	122 to 124 °C	≥ 80%	
C=Cc1cccc2c1ncn2C1=NC(C)(C)C(C)(C)c2c(F)cccc21 [E-13]	≥ 80%		≥ 80%		≥ 80%	≥ 80%	70 to 71 °C		≥ 80%
Cc1cccc2c1ncn2C1=NC(C)(C)Cc2c(Cl)cccc21 [E-40]	≥ 80%		≥ 80%		≥ 80%	≥ 80%		≥ 80%	
Cc1cccc2c1C(=O)C(C)(C)N=C2n1cnc2c(C)cccc21 [E-26]	≥ 80%		≥ 80%	≥ 80%	≥ 80%	≥ 80%	96 to 101 °C	≥ 80%	≥ 80%
CC1(C)N=C(n2cnc3ccccc32)c2cccc(F)c2C1(C)C [E-2]	≥ 80%		≥ 80%	≥ 80%	≥ 80%				
Cc1c(Cl)ccc2c1ncn2C1=NC(C)(C)C(C)(C)c2c(F)cccc21 [E-42]	≥ 80%		≥ 80%	≥ 80%	≥ 80%	≥ 80%	102 to 103 °C	≥ 80%	
Cc1cccc2c1ncn2C1=NC2(CCC2)Cc2ccccc21 [E-43]	≥ 80%		≥ 80%		≥ 80%	≥ 80%	132 to 133 °C	≥ 80%	
COc1cccc2c1ncn2C1=NC(C)(C)C(C)(C)c2c(F)cccc21 [E-6]	≥ 80%		≥ 80%		≥ 80%	≥ 80%			≥ 80%
Cc1cccc2c1ncn2C1=NC(C)(C)C(C)(C)c2c1ccc(F)c2F [E-46]	≥ 80%		≥ 80%	≥ 80%	≥ 80%	≥ 80%	122 to 125 °C	≥ 80%	

Structure (SMILES)	inhibition of growth at 200 ppm [1]	inhibition of growth at 200 ppm [2]	inhibition of growth at 200 ppm [3]	inhibition of growth at 200 ppm [4]	inhibition of growth at 200 ppm [5]	inhibition of growth at 20 ppm [6]	melting point	inhibition of growth at 20 ppm [7]	inhibition of growth at 20 ppm [8]
CC1(C)N=C(n2cnc3c4c(ccc32)CCC4)c2cccc(F)c2C1(C)C [E-51]	≥ 80%	≥ 80%		≥ 80%	≥ 80%	≥ 80%	177 to 178 °C		
Cc1cccc2c1ncn2C1=NC(C)(C)Cc2c(Br)cccc21 [E-38]	≥ 80%		≥ 80%		≥ 80%	≥ 80%	52 to 54 °C	≥ 80%	
Cc1cccc2c1ncn2C1=NC(C)(C)C(C)(C)c2c(F)cccc21 [Example 1]							118 to 120 °C		
Cc1ccc2c(ncn2C2=NC(C)(C)C(F)(F)c3ccccc32)c1Cl [E-31]	≥ 80%	≥ 80%	≥ 80%	≥ 80%	≥ 80%	≥ 80%		≥ 80%	
Cc1ccc2c(ncn2C2=NC(C)(C)C(F)(F)c3cc(Cl)ccc32)c1C [E-49]	≥ 80%	≥ 80%	≥ 80%	≥ 80%	≥ 80%	≥ 80%			
Cc1cccc2c1ncn2C1=NC(C)(C)C(=O)c2ccccc21 [E-10]	≥ 80%		≥ 80%		≥ 80%	≥ 80%	123 to 125 °C		≥ 80%
Cc1cccc2c1ncn2C1=NCC2(CCCCC2)c2ccccc21 [E-52]	≥ 80%					≥ 80%			
Cc1ccc2c(ncn2C2=NC3(CC3)C3(CC3)c3ccccc32)c1C [E-58]	≥ 80%	≥ 80%	≥ 80%	≥ 80%	≥ 80%	≥ 80%	141 to 143 °C	≥ 80%	
CC1(C)N=C(n2cnc3cc(Cl)c(Cl)cc32)c2cccc(F)c2C1(C)C [E-39]	≥ 80%		≥ 80%		≥ 80%	≥ 80%	126 to 127 °C	≥ 80%	
Cc1cccc2c1ncn2C1=NC2(CC2)Cc2ccccc21 [E-59]	≥ 80%	≥ 80%	≥ 80%	≥ 80%	≥ 80%	≥ 80%			
Cc1cccc2c1ncn2C1=NC(C)(C)C(F)(F)c2ccccc21							142 to 149 °C		
CC1(C)N=C(n2cnc3c(C(F)(F)F)cccc32)c2cccc(F)c2C1(C)C [E-5]	≥ 80%		≥ 80%		≥ 80%	≥ 80%			≥ 80%
CC1(C)N=C(n2cnc3c(Cl)cccc32)c2ccc(Cl)cc2C1(F)F [E-37]	≥ 80%	≥ 80%			≥ 80%	≥ 80%	197 to 200 °C	≥ 80%	
Cc1cccc2c1ncn2C1=NCC(C)(C)c2ccccc21 [E-44]	≥ 80%		≥ 80%		≥ 80%	≥ 80%		≥ 80%	
COC(=O)c1cccc2c1ncn2C1=NC(C)(C)C(C)(C)c2c(F)cccc21 [E-24]						≥ 80%	178 to 179 °C		
Cc1c(F)ccc2c1ncn2C1=NC(C)(C)C(F)(F)c2cc(Cl)ccc21 [E-48]	≥ 80%	≥ 80%		≥ 80%	≥ 80%	≥ 80%			
Cc1cccc2c1ncn2C1=NC(C)(C)C(F)(F)c2cc(Cl)ccc21 [E-47]	≥ 80%	≥ 80%		≥ 80%	≥ 80%	≥ 80%			

Source: patent US10273221B2, “Microbiocidal heterobicyclic derivatives” (Syngenta Participations AG, priority 2015, dated 2019)
